In US8153589B2, “JNK3 as a target for the treatment of angiogenesis-related diseases” (The University of North Carolina at Chapel Hill, priority 2009, dated 2012):

Experiments:
Type in all cases: cell-based, bovine
JNK3 = test: JNK activation (phospho-JNK Western blot) in BAECs; details: BAECs
Method: (§1) Cells were harvested in lysis buffer (1% Triton X-100, 50 mM Tris, pH 7.4, 150 mM NaCl, 1 mM Na3VO4 and 0.1% protease inhibitor tablet; Roche) and clarified by centrifugation at 16,000 g. Equal amounts of proteins were incubated with a specific antibody overnight at 4° C. with gentle rotation. Protein A/G Plus-agarose beads (Santa Cruz Biotechnology, Santa Cruz, Calif.) were used to pull down the antibody complexes. Afterward, beads were washed with lysis buffer, and immune complexes were separated by SDS-PAGE. Total cell lysates were separated by SDS-PAGE and transferred to nitrocellulose membranes.
Mitogen-activated protein kinases (MAPKs), including ERK1/2 and p38, have been reported to enhance angiogenesis (20, 21). However, the role of JNK in angiogenesis remains controversial, with studies showing both positive and negative outcomes of JNK activation. In order to determine which MAPKs are involved in SDF-1α-induced endothelial cell migration, we screened the activities and expression levels of ERK1/2, p38 and JNK following treatment of BAECs with SDF-1α. […] SDF-1α activated both JNK and ERK1/2 in a dose-dependent manner (FIG. 2B). […] Protein and mRNA for all three JNK isoforms, JNK1, JNK2 and JNK3, can be found in BAECs (FIGS. 5, A&B). In order to determine which JNK protein(s) was activated by SDF-1α in these cells we used a previously described assay (22). Exogenous JNK1, JNK2 and JNK3 proteins containing Flag or GFP-epitopes were transiently expressed in BAECs and their activities were determined via western blotting with a phospho-JNK antibody following SDF-1α treatment. […] To confirm the finding that JNK3 is the only JNK entity activated by SDF-1α, we transfected cells with siRNAs for each of the JNK proteins and then tested the effect of each siRNA for the ability to suppress SDF-1α-induced JNK activation. […] Because JNK3 was the only SDF-1α-activated JNK in endothelial cells in our studies (FIG. 2C & FIG. 5, C), we consider the phospho-JNK signals in western blots with anti-phospho-JNK antibody as the signals for activated JNK3.

p38 = p38 activation, Western blot in BAECs; details: SDF-1α treatment
Method: as §1
(§2) Mitogen-activated protein kinases (MAPKs), including ERK1/2 and p38, have been reported to enhance angiogenesis (20, 21). However, the role of JNK in angiogenesis remains controversial, with studies showing both positive and negative outcomes of JNK activation. In order to determine which MAPKs are involved in SDF-1α-induced endothelial cell migration, we screened the activities and expression levels of ERK1/2, p38 and JNK following treatment of BAECs with SDF-1α. […] SDF-1α activated both JNK and ERK1/2 in a dose-dependent manner (FIG. 2B). […] Exogenous JNK1, JNK2 and JNK3 proteins containing Flag or GFP-epitopes were transiently expressed in BAECs and their activities were determined via western blotting with a phospho-JNK antibody following SDF-1α treatment. […]

ERK1/2 = ERK1/2 activation, Western blot in BAECs; details: BAECs, SDF-1α 50 ng/ml
Method: as §1, §2

eNOS = eNOS Ser 1177 phosphorylation, Western blot in BAECs
Method: as §1
The degree of SDF-1α-induced activation of eNOS was examined in bovine aortic endothelial cells (BAECs) by monitoring phosphorylation of the Ser 1177 activation site in eNOS. […] Phosphorylation of Ser 1177 peaked at 5 minutes after SDF-1α stimulation (FIG. 1A), and increased in a dose-dependent fashion over a SDF-1α concentration range of 50 ng/ml to 500 ng/ml (FIG. 1B), which approximates physiologically relevant SDF-1α concentrations.

BAECs [1] = test: In vitro Matrigel angiogenesis (tube formation) assay; details: 50 ng/ml SDF-1α, control siRNA cells
Method: Endothelial cell tube formation was analyzed with the Matrigel-based tube formation assay (40, 41). Chilled 24-well plates were coated with growth factor-reduced Matrigel (Becton Dickinson, San Jose, Calif.) that was polymerized at 37° C. for 30 min. BAECs were transfected with siRNA constructs with the Amaxa Nucleofector electroporation reagent. Three days later, cells were trypsinized, and plated at equal numbers into each Matrigel-coated well. After 18 hours of incubation in the absence or presence of SDF-1alpha, the formation of tubes was photographed (Eclipse, 10× objective, TS100Nikon). Images were quantified with ImageJ.
Endothelial cell migration is a critical step for tube formation during angiogenesis. To test the importance of JNK3 in highly ordered cell assembly processes, we examined the effect of JNK knockdown with siRNAs on the formation of capillary-like tubes in Matrigel. BAECs were transfected with JNK1 siRNA, JNK2 siRNA, JNK3 siRNA or control siRNA. After 72 hours, cells were plated on Matrigel in medium containing 50 ng/ml SDF-1α.

BAECs [2] = test: Boyden chamber migration assay
Method: Boyden chamber assays were performed as previously described (40, 41) using a 48-well chamber apparatus (NeuroProbe, Cabin John, Md.). The lower chambers of the apparatus were filled with DMEM with or without SDF-1alpha and then covered with the collagen-coated filter and the upper chambers. Cells pretreated with or without the indicated inhibitors were then added to the upper chambers. After incubating for 6 h at 37° C., cells present on the lower surface were fixed, stained and identified with the 40× objective lens on a Nikon Eclipse TS 100 inverted microscope.
To determine whether eNOS activation is required for SDF-1α-mediated endothelial cell migration, we performed scratch-wound healing and Boyden chamber migration assays in the presence of the NOS-specific inhibitor L-NMMA (19). Confluent BAECs were pretreated for one hour with 1 mM or 5 mM L-NMMA or vehicle prior to each assay. […] Endothelial cells were transfected with 1 of 3 different bovine eNOS-specific siRNAs, or mixture of all three, and 72 hours later cell lysates were examined by western blot analysis for levels of eNOS protein.

With SDF-1α as the substance, how does the “phosphorylation of exogenous Flag/GFP-tagged JNK1, JNK2, JNK3” value (JNK3; 50 ng/ml SDF-1alpha for 5 minutes) read?
The value was “only phosphorylation of JNK3 (but not JNK1 or JNK2) was increased”.

And the JNK activity (JNK3; SDF-1α 50 ng/ml)?
Its JNK activity is “potently induced”.

What about the p38 activation (p38) of the same substance?
Its p38 activation is “not significantly activated”.

And the ERK1/2 activity (ERK1/2)?
The ERK1/2 activity was “potently induced”.

What about the “time of peak phosphorylation of eNOS Ser 1177 after stimulation” value (eNOS; 50 ng/ml SDF-1alpha) of the same substance?
The value was 5 min.

What about the “eNOS phosphorylation (Ser 1177)” value (eNOS; 50 ng/ml to 500 ng/ml SDF-1α) of the same substance?
The value was “time- and dose-dependent manner”.

And the tube length (BAECs [1])?
The tube length was 605±106 μm.

And the “cell migration in Boyden chambers” value (BAECs [2]; 50 ng/ml SDF-1alpha, no inhibitor (FIG. 1D))?
The value was 86±5 cells per field.

What about the endothelial cell migration (BAECs [2]; control-transfected BAECs, 50 ng/ml SDF-1alpha (FIG. 4F)) of the same substance?
Its endothelial cell migration is 125±9 cells/field.
